From US20250099033A1, “HIGH THROUGHPUT SCREENING METHOD FOR THE IDENTIFICATION OF PS[…]” (FRIEDRICH MIESCHER INSTITUTE FOR BIOMEDICAL RESEARCH, priority 2022, published 2025)
Entries after “also recorded” stand apart in the source; their conditions may differ.

Test system: Tlx3 positive layer 5 IT neurons
Test: Widefield calcium imaging of dorsal cortex in Tlx3-Cre x Ai148 mice (GCaMP6 in layer 5 IT neurons), before and after drug injection
Type: in vivo
Conditions: for long-range activity correlations (drug induced difference, normalized to naïve): region pairs above 0.9 of the bregma-lambda distance; for Pearson's correlation of activity between cortical regions (all region pairs): single injection, after vs naïve
Source text: All animal procedures were approved by and carried out in accordance with guidelines of the Veterinary Department of the Canton Basel-Stadt, Switzerland. The mice used in this study were kept on a C57BL/6 background and were of the following genotype: 6 C57/Bl6 (Charles River Laboratories), 4 Emx1-Cre mice (Gorski et al., 2002), 4 Cux2-CreERT2 (Franco et al., 2012), 7 Scnn1a-Cre (Madisen et al., 2010), 15 Tlx3-Cre(PL56) (Gerfen et al., 2013), 3 Ntsr1-Cre (Gong et al., 2007), 2 PV-Cre (Hippenmeyer et al., 2005), 6 VIP-Cre (Taniguchi et al., 2011), 5 Sst-Cre (Taniguchi et al., 2011) were used for widefield calcium imaging. Ai148 ((Daigle et al., 2018), Jackson Laboratories, stock #030328) mice were used as breeders to drive GCaMP6f in Cre positive neurons. 7 C57BL/6 were used for experiments controlling for hemodynamic responses. To induce expression of Cre in the Cux2-CreERT2 line, mice were kept for at least 1 week on Tamoxifen containing food (Envigo, 400 mg Tamoxifen per kg of food) as their only food source. Mice were group housed in a vivarium (light/dark cycle: 12/12 hours). Experimental mice used were of both sexes.
For all surgical procedures, mice were anesthetized using a mixture of Fentanyl (0.05 mg/kg; Actavis), Midazolam (5.0 mg/kg; Dormicum, Roche) and Medetomidine (0.5 mg/kg; Domitor, Orion). In a subset of mice (6 C57/Bl6, 4 Emx1-Cre, 4 Sst-Cre mice) we injected an AAV coated with the PHP.eb capsid (Chan et al., 2017) retroorbitally ([…] each eye of at least 10^13 GC/ml) to drive expression pan-neuronally or cell type specificly of GCaMP6 under either the Ef1α or hSyn promoter. For hemodynamic response control experiments, the inventors used an AAV PHP.eb Ef1α-GFP to pan-neuronally transfect GFP. To improve optical access to the cortex, they implanted crystal skull cranial windows (Kim et al., 2016). Prior to removing the skull plate overlying dorsal cortex, they zeroed bregma with a digital readout attached to the stereotax for later use as a landmark. Superglue (Pattex) was used to close the craniotomy. […] A custom-machined titanium head bar was attached to the skull using dental cement (Paladur, Heraeus). An epifluorescence overview image was taken to mark reference points on the dorsal cortical surface. Anesthesia was antagonized by an intraperitoneal injection of a mixture of Flumazenil (0.5 mg/kg; Anexate, Roche) and Atipamezole (2.5 mg/kg; Antisedan, Orion Pharma), analgesia was achieved by injecting Buprenorphine (0.1 mg/kg; Reckitt Benckiser Healthcare (UK) Ltd.) and Metacam (5 mg/kg; Boehringer Ingelheim), and mice were subsequently returned to their home cage. Imaging commenced not before 1 week after headbar implantation and not before at least 3 weeks had passed in the cases in which AAVs had been used to transfect neurons. Clozapine (Sigma), Aripiprazole (Otsuka Pharmaceutical), Haloperidol (Janssen) and Amphetamine (Hänseler) were intraperitoneally injected at […] body weight, respectively.
For all experiments we used a virtual reality setup as previously described (Leinweber et al., 2014). Mice were head-fixed and free to run on a spherical, air supported Styrofoam ball. Rotation of the ball was coupled to movement in a virtual reality environment. A virtual corridor was projected (Samsung SP-F10M) onto a toroidal screen positioned in front of the mice covering approximately 240 degrees horizontally and 100 degrees vertically of the field of view. […]

SMILES: O=C1CCc2ccc(OCCCCN3CCN(c4cccc(Cl)c4Cl)CC3)cc2N1 [Aripiprazole]
- long-range activity correlations (drug induced difference, normalized to naïve): significantly reduced
- short-range activity correlations (drug induced difference, normalized to naïve) (region pairs below 0.9 of the bregma-lambda distance): significantly reduced
- Pearson's correlation of activity between cortical regions (all region pairs): mimicked the decorrelation of dorsal cortex activity observed with Clozapine; also recorded: decorrelation of the activity patterns of Tlx3 positive layer 5 IT neurons was preserved

SMILES: CC(N)Cc1ccccc1 (stereo not drawn) [Amphetamine]
- Pearson's correlation of activity between cortical regions (all region pairs): did not affect activity correlations; also recorded: absent

SMILES: O=C(CCCN1CCC(O)(c2ccc(Cl)cc2)CC1)c1ccc(F)cc1 [Haloperidol]
- long-range activity correlations (drug induced difference, normalized to naïve): reduced long-range activity correlations
- Pearson's correlation of activity between cortical regions (all region pairs): mimicked the decorrelation of dorsal cortex activity observed with Clozapine; also recorded: decorrelation of the activity patterns of Tlx3 positive layer 5 IT neurons was preserved
